Data on seven compounds can be found in ChEMBL document CHEMBL1144105, “Antioxidant principles from Ephemerantha lonchophylla” (J Nat Prod, 1999).

This test in a line: Antioxidant activity against copper-induced lipid peroxidation in human LDL after 1 hr relative to probucol. Type of test: functional.

Compound `COC1=CC(=O)c2ccc3cc(OC)cc(O)c3c2C1=O` returned an Activity of 0.4%.

The compound `CC(C)(Sc1cc(C(C)(C)C)c(O)c(C(C)(C)C)c1)Sc1cc(C(C)(C)C)c(O)c(C(C)(C)C)c1` came in with an Activity of 1%.

The compound `COc1cc(CCc2ccc(O)c(OC)c2)cc(OC)c1` came in with an Activity of 0.9%. `Oc1ccc(/C=C/c2cc(O)cc(O)c2)cc1` registered an Activity of 0.7%. For the compound `COc1cc(CCc2cc(OC)c(O)c(OC)c2)ccc1O`, the Activity stood at 7.8%.

In turn, `CCOC1=CC(=O)c2ccc3cc(OC)cc(O)c3c2C1=O` displayed an Activity of 0.2%. Compound `COC1=Cc2ccc3cc(O)ccc3c2C(=O)C1(O)CC(C)=O` (configuration not stated) showed an Activity of 5.3%.
